According to the supplement of paper PMC5662764:
± gives the standard deviation of the averaged measurements.

Legend:
Assay in all cases: normalised growth rate inhibition (GR value) relative to DMSO control (GR (1 = untreated growth, 0 = cytostasis, <0 = cytotoxic)); higher = less growth inhibition
Conditions in all cases: 72 h
[1] = system: MDAMB231
Description: (§1)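 Breast cancer cell lines (BT-20, Hs 578T, MCF 10A, MCF7, MDA-MB-231, SK-BR-3) were plated in 384-well plates and treated 24 h later with drugs at six concentrations (0.04-10 µM). Viable cells were counted by Hoechst/dead-cell-stain imaging at 0 and 72 h. Counts were normalised to DMSO controls on the same plate to give the relative cell count and the growth-rate inhibition (GR) value; technical plate triplicates were averaged for each biological replicate.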

[2] = system: BT20
Description: as §1

[3] = system: SKBR3
Description: as §1

[4] = system: MCF7
Description: as §1

[5] = system: HS578T
Description: as §1

[6] = system: MCF10A
Description: as §1

Structure (SMILES) | normalised growth rate inhibition ([1]; 0.04 µM) | normalised growth rate inhibition ([1]; 0.12 µM) | normalised growth rate inhibition ([1]; 0.37 µM) | normalised growth rate inhibition ([1]; 1.11 µM) | normalised growth rate inhibition ([1]; 3.33 µM) | normalised growth rate inhibition ([1]; 10 µM) | normalised growth rate inhibition ([2]; 0.04 µM) | normalised growth rate inhibition ([2]; 0.12 µM) | normalised growth rate inhibition ([2]; 0.37 µM) | normalised growth rate inhibition ([2]; 1.11 µM) | normalised growth rate inhibition ([2]; 3.33 µM) | normalised growth rate inhibition ([2]; 10 µM) | normalised growth rate inhibition ([3]; 0.04 µM) | normalised growth rate inhibition ([3]; 0.12 µM) | normalised growth rate inhibition ([3]; 0.37 µM) | normalised growth rate inhibition ([3]; 1.11 µM) | normalised growth rate inhibition ([3]; 3.33 µM) | normalised growth rate inhibition ([3]; 10 µM) | normalised growth rate inhibition ([4]; 0.04 µM) | normalised growth rate inhibition ([4]; 0.12 µM) | normalised growth rate inhibition ([4]; 0.37 µM) | normalised growth rate inhibition ([4]; 1.11 µM) | normalised growth rate inhibition ([4]; 3.33 µM) | normalised growth rate inhibition ([4]; 10 µM) | normalised growth rate inhibition ([5]; 0.04 µM) | normalised growth rate inhibition ([5]; 0.12 µM) | normalised growth rate inhibition ([5]; 0.37 µM) | normalised growth rate inhibition ([5]; 1.11 µM) | normalised growth rate inhibition ([5]; 3.33 µM) | normalised growth rate inhibition ([5]; 10 µM) | normalised growth rate inhibition ([6]; 0.04 µM) | normalised growth rate inhibition ([6]; 0.12 µM) | normalised growth rate inhibition ([6]; 0.37 µM) | normalised growth rate inhibition ([6]; 1.11 µM) | normalised growth rate inhibition ([6]; 3.33 µM) | normalised growth rate inhibition ([6]; 10 µM)
CN1CCN(CCOc2cc(OC3CCOCC3)c3c(Nc4c(Cl)ccc5c4OCO5)ncnc3c2)CC1 [saracatinib] | 0.862 ± 0.075 | 0.704 ± 0.086 | 0.587 ± 0.065 | 0.51 ± 0.09 | 0.489 ± 0.12 | 0.348 ± 0.11 | 0.993 ± 0.057 | 0.944 ± 0.024 | 0.877 ± 0.032 | 0.785 ± 0.06 | 0.621 ± 0.11 | 0.26 ± 0.07 | 1.15 ± 0.098 | 1.12 ± 0.1 | 1 ± 0.07 | 0.916 ± 0.08 | 0.763 ± 0.057 | 0.207 ± 0.11 | 0.854 ± 0.055 | 0.661 ± 0.12 | 0.43 ± 0.2 | 0.323 ± 0.27 | 0.228 ± 0.26 | 0.266 ± 0.21 | 0.9858 ± 0.0065 | 0.92 ± 0.039 | 0.828 ± 0.043 | 0.697 ± 0.088 | 0.609 ± 0.089 | 0.339 ± 0.092 | 1.012 ± 0.0071 | 0.9684 ± 0.0069 | 0.906 ± 0.045 | 0.745 ± 0.12 | 0.534 ± 0.14 | 0.108 ± 0.033
C=CC(=O)Nc1cccc(Nc2nc(NC3CCC(N(C)C)CC3)nc3c2ncn3C(C)C)c1 (configuration not stated) [WZ-3105] | -0.23 ± 0.13 | -0.232 ± 0.15 | -0.235 ± 0.16 | -0.237 ± 0.16 | -0.232 ± 0.12 | -0.132 ± 0.12 | 0.223 ± 0.13 | 0.0547 ± 0.14 | -0.0538 ± 0.17 | -0.207 ± 0.19 | -0.253 ± 0.18 | -0.328 ± 0.19 | -0.298 ± 0.15 | -0.287 ± 0.18 | -0.269 ± 0.18 | -0.273 ± 0.18 | -0.266 ± 0.15 | -0.227 ± 0.19 | -0.317 ± 0.065 | -0.303 ± 0.097 | -0.28 ± 0.11 | -0.254 ± 0.091 | -0.27 ± 0.062 | -0.296 ± 0.05 | -0.121 ± 0.089 | -0.138 ± 0.075 | -0.127 ± 0.097 | -0.135 ± 0.11 | -0.147 ± 0.1 | -0.143 ± 0.14 | 0.523 ± 0.12 | 0.188 ± 0.13 | -0.101 ± 0.14 | -0.224 ± 0.24 | -0.245 ± 0.25 | -0.269 ± 0.24
